From paper PMC10829302 (BMC Microbiology, 2024)

Molecular target: T1, tubulin (α/β heterodimer; β-tubulin) (Sus scrofa, UniProt P02554)
T1 construct: heterodimer of two closely related 55 kDa proteins (α and β tubulins), isolated from Porcine brain tissue; with α-tubulin
Experiment: tubulin polymerization assay with purified porcine brain tubulin (Cytoskeleton BK011P), positive control
Type: biochemical

T1 sequence (P02554 whole entry): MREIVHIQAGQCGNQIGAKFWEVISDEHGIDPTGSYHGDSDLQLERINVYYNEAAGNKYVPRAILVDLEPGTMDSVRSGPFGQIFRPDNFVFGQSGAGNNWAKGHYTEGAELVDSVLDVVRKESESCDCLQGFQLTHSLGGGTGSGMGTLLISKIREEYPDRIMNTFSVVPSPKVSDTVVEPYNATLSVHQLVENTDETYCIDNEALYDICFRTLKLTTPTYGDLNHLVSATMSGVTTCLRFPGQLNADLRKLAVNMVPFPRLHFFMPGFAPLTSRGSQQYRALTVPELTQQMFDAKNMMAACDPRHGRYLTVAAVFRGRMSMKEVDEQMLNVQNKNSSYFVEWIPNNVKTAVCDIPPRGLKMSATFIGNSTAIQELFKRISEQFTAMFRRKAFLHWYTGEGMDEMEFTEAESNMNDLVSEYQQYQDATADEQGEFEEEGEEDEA
T1 sequence (P02550 whole entry partner): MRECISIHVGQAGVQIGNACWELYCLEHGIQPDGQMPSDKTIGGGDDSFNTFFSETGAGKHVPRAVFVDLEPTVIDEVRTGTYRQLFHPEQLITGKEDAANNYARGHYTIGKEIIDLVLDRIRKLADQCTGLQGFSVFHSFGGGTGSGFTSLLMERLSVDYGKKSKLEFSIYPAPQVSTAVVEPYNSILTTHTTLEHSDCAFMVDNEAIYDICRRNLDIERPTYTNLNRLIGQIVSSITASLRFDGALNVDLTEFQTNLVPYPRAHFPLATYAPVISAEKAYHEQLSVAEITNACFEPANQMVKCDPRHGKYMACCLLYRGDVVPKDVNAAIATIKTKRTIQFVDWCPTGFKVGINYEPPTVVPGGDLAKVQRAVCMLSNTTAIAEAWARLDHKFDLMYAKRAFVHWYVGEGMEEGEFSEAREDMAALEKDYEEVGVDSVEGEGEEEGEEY

SMILES: CC(=O)O[C@H]1C(=O)[C@@]2(C)[C@H]([C@H](OC(=O)c3ccccc3)[C@]3(O)C[C@H](OC(=O)[C@H](O)[C@@H](NC(=O)c4ccccc4)c4ccccc4)C(C)=C1C3(C)C)[C@]1(OC(C)=O)CO[C@@H]1C[C@@H]2O [Paclitaxel]
- IC50: 2340 nM
